This note sets out measurements from patent publication US20210087279A1, “REGULATABLE CHIMERIC ANTIGEN RECEPTOR” (Novartis AG, priority 2014, published 2021).

As usually defined, the EC50 is the concentration giving half of the maximal effect.

For assay [1], the system named is NFAT activation in Jurkat cells with NFAT-LUC reporter (JNL). The experiment in a line: Jurkat NFAT-LUC reporter assay, EGFRvIII RCAR with intracellular FKBP/FRB switch. The assay is classed as cell-based. As for the experimental part:
Jurkat cells with NFAT-LUC reporter (JNL) were grown to the density of 0.5×10^6/ml in Jurkat cell growth media with puromycin at 0.5 μg/ml. For each transfection 2.5×10^6 cells were spin down at 100 g for 10 minutes. Two μg of DNA per construct were used per transfection. Amaxa Nucleofector solution V and supplement I was mixed and 100 μl was added into the tube with DNA construct. The mixture was then added to the cells and transferred to the electroporation cuvette. Electroporation was done under setting X-001 using Amaxa Nucleofector II Device. 0.5 ml of growth media was added immediately after eletroporation and the mixture were transferred into 2 ml growth media in one well of the 6-well plate. After one hour, A/Z compound was applied at the final concentration of 500 nM. The cells were incubated in the 37° C. incubator with 5% CO2 overnight for 18 hrs. Tissue culture plate was coated with 5 μg/ml of EGFRvIII-Fc or IgG1-Fc for 2 hrs, blocked with the blocking buffer (DPBS with 5% serum) for 1 hour. The transfected cells with or without A/Z compound were resuspended and added to the target plate with 100 μl per well and incubated for 18 hrs. Luciferase One Glo reagent 100 μl was added per well. The samples were incubated for 5 min at 37° C. and then luminescence is measured using a luminometer.
Specifically, JNL were grown to the density of 0.5×10^6/ml in Jurkat cell growth media with puromycin at 0.5 μg/ml. For each transfection 2.5×10^6 cells were spin down at 100 g for 10 minutes. Two μg of DNA per construct were used per transfection. Amaxa Nucleofector solution V and supplement I was mixed and 100 μl was added into the tube with DNA construct. […] The samples were incubated for 5 min at 37° C. and then luminescence is measured using a luminometer.
To determine the dose response, rapaloque (“A/C heterodimerizer” AP21967), at various concentrations, was applied to the transfected cells that were cotransfected with EGFRvIII clone 139-CD8alphaTM-FKBP (SEQ ID NO: 5, construct 66) and FRB-4-1BB-CD3zeta (SEQ ID NO: 6, construct 67) and NFAT activation was measured. […]

Assay [2] has the same test system. The experiment in a line: Jurkat NFAT-LUC assay, EGFRvIII RCAR with extracellular FKBP/FRB switch. Format: cell-based. The conditions noted are these: 250 nM, external switch. The protocol:
In this example, the switch is designed by fusing a leader sequence to the 139 scFv followed by linker and the first switch domain—FKBP, a hinge region and a transmembrane region (SEQ ID NO: 31). The second construct is designed by fusing a leader sequence to the FRB switch domain, a transmembrane region and the intracellular signaling domains 4-1BB followed by CD3zeta (SEQ ID NO: 32). The extracellular switch transfections and activations were carried out essentially as described for the intacellular switches in Example 1.

Assay [3] deals with NFAT activation in Jurkat cells with NFAT-LUC reporter (JNL), PDL1-Fc target. In words: Activation assay of redirected inhibitory PD1 CAR / PD1 RCAR. Format: cell-based. The protocol: Jurkat cells with NFAT-LUC reporter (JNL) were grown to the density of 0.5×10^6/ml in Jurkat cell growth media with puromycin at 0.5 μg/ml. For each transfection 3×10^6 cells were spin down at 100 g for 10 minutes. Four μg DNA per construct were used per transfection. Amaxa Nucleofector solution V and supplement I was mixed and 100 μl was added into the tube with DNA construct. The mixture was then added to the cells and transferred to the electroporation cuvette. Electroporation was done under setting X-001 using Amaxa Nucleofector II Device. 0.5 ml of growth media was added immediately after eletroporation and the mixture were transferred into 2 ml growth media in one well of the 6-well plate. After two hours, the rapalogue compound at various concentrations was added to cells. The cells were applied to tissue culture plate wells that were coated by the target. Tissue culture plate was coated with 5 μg/ml of PDL1-Fc or IgG1-Fc or any target for 2 hrs at 37° C., then blocked with the blocking buffer (DPBS with 5% serum) for 30 minutes. The transfected cells were added to the target plate with 100 μl per well and incubated further for 16 hrs. Luciferase One Glo reagent 100 μl was added per well. The samples were incubated for 5 min at 37° C. and then luminescence is measured using Envision plate reader. […]

Assay [4] concerns reporter under NFAT control in JNL cells. In words: Dimerization molecule dose response, single vector construct 143775 in JNL cells, CD19 target. Format: cell-based. The conditions noted are these: nM to sub-nM doses. The text has this:
The constructs and viral particles were made and tested essentially as described in Example 11. Viral particles were introduced into JNL cells and evaluated for activity essentially as described in Example 1 except that the target was CD19 (as opposed to EGFRviii).
Construct 143775 was introduced into cells and the affect of dimerization molecule concentration on activation evaluated essentially as described in Example 14.

Assay [5] deals with biotinylated FKBP in the presence of everolimus. In words: FRB direct binding assay (AlphaLISA). The conditions noted are these: 30 nM biotinylated FKBP and FLAG FRB protein; everolimus serial diluted from 600 nM. As for the experimental part: FRB mutations were also ranked in an alternative assay format. […] All dilutions were made in 1× AlphaLISA Immunoassay buffer (PerkinElmer). Anti-Flag acceptor beads (PerkinElmer) were added at 10 ug/ml final concentration and incubated for one hour at room temperature. Streptavidin donor beads (PerkinElmer), were then added at a final concentration of 40 ug/ml and the plate was protected from light and incubated for 30 minutes at room temperature. The plate was then read on the PerkinElmer EnVision Multiplate reader equipped with the Alpha Module using excitation of 680 nm and a 570 nm Emission filter.
On the technique in general: Bead proximity is the source of the signal in Alpha formats.

Assay [6] relates to NFAT activation in Jurkat cells with NFAT-LUC reporter (JNL). The experiment in a line: Jurkat NFAT-LUC assay, peptide tag (myc/Flag) dimerization switch. The assay is classed as cell-based. The protocol: The non-regulatable CAR construct, 139scFv-BBZ, SEQ ID: 7, will be used as a control. Jurkat cells with NFAT-LUC reporter (JNL) were grown to the density of 0.5×10^6/ml in Jurkat cell growth media with puromycin at 0.5 μg/ml. For each transfection 2.5×10^6 cells were spun down at 100 g for 10 minutes. Two μg of DNA per construct was used per transfection. Amaxa Nucleofector solution V and supplement I were mixed and 100 μl was added into the tube with DNA construct. The mixture was then added to the cells and transferred to the electroporation cuvette. Electroporation was done under setting X-001 using Amaxa Nucleofector II Device. 0.5 ml of growth media was added immediately after eletroporation and the mixture were transferred into 2 ml growth media in one well of the 6-well plate. The cells were incubated in the 37° C. incubator with 5% CO2 overnight. Rabbit polyclonal antibody against myc tag was added to the cells which were transfected with RCAR construct with myc tag as the extracellular domain. The concentration of the polyclonal antibody was at 100 nM. One and half hour later, 100 nM of anti rabbit antibody was added in order to enhance cluster formation. The cell mixture was incubated at 37° C. for 18 hrs. Luciferase One Glo reagent 100 μl was added per well. The samples were incubated for 5 min at 37° C. and then luminescence was measured using a luminometer.
Similarly, a construct with Flag peptide tag as the extracellular domain was used to transfect reporter cells. Rabbit polyclonal antibody against Flag peptide tag was used at 100 nM; and to facilitate further clustering, an antibody against the rabbit polyclonal antibody was used at 100 nM. In addition, a construct with scFv 139 as the extracellular domain was used to transfect reporter cells, and EGFRvIII-Fc at 100 nM was used, and one and half hour later anti-Fc antibody was used.

Sequence of biotinylated FKBP in the presence of everolimus (P62942 2-108 limits assumed): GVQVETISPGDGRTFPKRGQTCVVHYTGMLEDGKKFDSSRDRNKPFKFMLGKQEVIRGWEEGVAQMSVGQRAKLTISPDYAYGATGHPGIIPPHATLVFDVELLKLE

With `CO[C@H]1[C@@H](O)[C@H](C)C[C@H](C)/C=C/C=C/C=C(\C)[C@@H](c2c[nH]c3c(C)cccc23)C[C@@H]2CC[C@@H](C)[C@@](O)(O2)C(=O)C(=O)N2CCCC[C@H]2C(=O)O[C@H]([C@H](C)CC2CC[C@@H](O)[C@H](OC)C2)C[C@H](O)[C@H](C)/C=C(\C)[C@H]1O` (some centres unmarked) [AP21967], the “fold of induction of NFAT mediated by the target” value in assay [1] (0.8 nM rapalogue, constructs 66 and 67) is given as 2-3 fold. For the same molecule, the “fold activation of NFAT” value in assay [1] (500 nM to as low as 20 nM, constructs 66 and 67, FIG. 12B) is listed as “remained relatively constant”. Further, the target regulated activation entry is “significant target regulated activation” in assay [1] (500 nM, EGFRvIII-Fc target, FIG. 12A) and “significant target regulated activation” in assay [2]. Further, the “induction of signaling by PDL-1 target” value in assay [3] (500 nM AP21967, PD1 RCAR (PD1-ECD-TM-FRB and FKBP-41BB-CD3 zeta)) was “significant induction of signaling”. In assay [3] (varying concentrations, PD1 RCAR, FIG. 18), the “dose response, activation of NFAT signaling” value is “potent even at sub nM concentration”. For the molecule `CO[C@H]1C[C@@H]2CC[C@@H](C)[C@@](O)(O2)C(=O)C(=O)N2CCCC[C@H]2C(=O)O[C@H]([C@H](C)C[C@@H]2CC[C@@H](O)[C@H](OC)C2)CC(=O)[C@H](C)/C=C(\C)[C@@H](O)[C@@H](OC)C(=O)[C@H](C)C[C@H](C)/C=C/C=C/C=C/1C` [rapamycin], the activation entry in assay [4] is “effective at a broad range of concentrations”. For the molecule “E2032I: FRB point mutant; His-FRB SEQ ID NO: 207, His-FLAG-FRB SEQ ID NO: 213”, in assay [5], the concentration giving a half-maximal response (EC50) worked out at 2.46 nM. For the molecule “E2032L: FRB point mutant; His-FRB SEQ ID NO: 208, His-FLAG-FRB SEQ ID NO: 214”, in assay [5], the EC50 was found to be 2.15 nM.

For the molecule “RCAR with Flag tag: flag peptide tag fused to linker, 4-1BB and CD3zeta, SEQ ID NO: 20”, the activation entry in assay [6] (rabbit polyclonal anti-Flag antibody and anti-rabbit antibody, 100 nM each) is given as “only showed activation when both crosslinking reagents were added”. Turning to “RCAR with c-myc peptide tag: c-myc peptide tag fused to linker, 4-1BB and CD3zeta, SEQ ID NO: 21”, the “activation after addition of anti rabbit antibody” value in assay [6] (anti-myc antibody 100 nM plus anti rabbit antibody 100 nM) is given as “further enhanced”. The NFAT activity entry in assay [6] (rabbit polyclonal anti-myc antibody 100 nM, compared to other antibodies) is “higher NFAT activity”.

Consider “T2098L: FRB point mutant; His-FRB SEQ ID NO: 209, His-FLAG-FRB SEQ ID NO: 215”, for which, in assay [5], the EC50 was found to be 1.44 nM. Still for that read-out and setting: as for “Wild type FRB: wild-type FRB; His-FRB SEQ ID NO: 206 (competition), His-FLAG-FRB SEQ ID NO: 212 (direct binding)”, the figure is 3.9 nM.
